Square brackets hold non-standard residues; d marks the D form. Peptide text beside a SMILES is read from it. * marks the point of attachment. Boc = CC(C)(C)OC(=O)*
Each molecule was assayed against recombinant rat Nln (Rattus norvegicus, UniProt P42676) (assay: Nln activation, continuous quenched fluorescence substrate). Settings: not given.
Format: biochemical

recombinant rat Nln, sequence (P42676 38-704): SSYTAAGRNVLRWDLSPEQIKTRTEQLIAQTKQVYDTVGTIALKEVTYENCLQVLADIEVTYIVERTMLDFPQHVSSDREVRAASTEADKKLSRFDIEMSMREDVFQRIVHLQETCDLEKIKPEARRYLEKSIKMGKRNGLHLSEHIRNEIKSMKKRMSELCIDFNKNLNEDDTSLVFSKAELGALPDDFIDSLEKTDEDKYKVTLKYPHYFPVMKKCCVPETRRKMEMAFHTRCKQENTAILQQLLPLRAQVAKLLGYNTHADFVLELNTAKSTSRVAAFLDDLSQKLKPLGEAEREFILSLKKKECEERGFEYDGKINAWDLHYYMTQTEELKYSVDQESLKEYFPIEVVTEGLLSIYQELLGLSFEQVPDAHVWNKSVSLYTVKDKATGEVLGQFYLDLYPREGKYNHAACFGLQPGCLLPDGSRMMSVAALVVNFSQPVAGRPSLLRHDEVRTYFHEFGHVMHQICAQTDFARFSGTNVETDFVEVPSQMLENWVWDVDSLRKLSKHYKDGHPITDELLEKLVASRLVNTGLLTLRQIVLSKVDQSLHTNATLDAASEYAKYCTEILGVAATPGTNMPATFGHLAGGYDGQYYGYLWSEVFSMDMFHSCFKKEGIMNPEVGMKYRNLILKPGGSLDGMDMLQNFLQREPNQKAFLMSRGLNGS

Row | SMILES | Amax, maximum % activation achieved (95% CI) | Nln activation, result in words
1 | N[C@@H](Cc1cnc[nH]1)C(=O)N[C@@H](Cc1ccc(O)cc1)C(=O)O [Compound 1, His–Tyr] (H-His-Tyr-OH) | 465.2 (440.2 to 492.3) % | 
2 | N[C@@H](Cc1c[nH]cn1)C(=O)N[C@@H](Cc1c[nH]cn1)C(=O)O [Compound 2, His–His] | 498.1 (481 to 516.5) % | 
3 | N[C@@H](Cc1cnc[nH]1)C(=O)N[C@@H](Cc1ccccc1)C(=O)O [Compound 3, His–Phe] (H-His-Phe-OH) | 442.3 (418.8 to 467.6) % | 
4 | N[C@@H](Cc1ccc(O)cc1)C(=O)N[C@H](Cc1c[nH]cn1)C(=O)O [Compound 4a, H-Tyr-His-OH] |  | complete amelioration of Nln activation
5 | CC(C)(C)OC(=O)N[C@@H](Cc1ccc(O)cc1)C(=O)N[C@H](Cc1ccccc1)C(=O)O [Compound 4b] (Boc-Tyr-[dF]-OH) |  | inactive
6 | N[C@@H](Cc1c[nH]cn1)C(=O)NCCc1ccc(C(F)(F)F)cc1 [Compound 4k, (S)-2-Amino-3-(1H-imidazol-4-yl)-N-(4-(trifluoromethyl)-phenethyl)propanamide] | 299.4 (283.9 to 316.2) % | 
7 | N[C@H](Cc1c[nH]cn1)C(=O)NCCc1ccc(C(F)(F)F)cc1 [Compound 4l, (R)-2-Amino-3-(1H-imidazol-4-yl)-N-(4-(trifluoromethyl)-phenethyl)propanamide] | 330.1 (313.9 to 347.7) % | 
8 | N[C@@H](Cc1c[nH]cn1)C(=O)NCCc1ccc([N+](=O)[O-])cc1 [Compound 4o, (S)-2-Amino-3-(1H-imidazol-4-yl)-N-(4-nitrophenethyl)-propanamide] | 282.4 (266.5 to 299.5) % | 
9 | N[C@H](Cc1c[nH]cn1)C(=O)NCCc1ccc([N+](=O)[O-])cc1 [Compound 4p, (R)-2-Amino-3-(1H-imidazol-4-yl)-N-(4-nitrophenethyl)-propanamide] | 267.5 (250.1 to 287.1) % | 
10 | N[C@@H](Cc1c[nH]cn1)C(=O)NCCc1ccc(-c2ccccc2)cc1 [Compound 4q, (S)-N-(2-([1,1′-Biphenyl]-4-yl)ethyl)-2-amino-3-(1H-imidazol-4-yl)propanamide] | 258.2 (244 to 273.4) % | 
11 | N[C@H](Cc1c[nH]cn1)C(=O)NCCc1ccc(-c2ccccc2)cc1 [Compound 4r, (R)-N-(2-([1,1′-biphenyl]-4-yl)ethyl)-2-amino-3-(1H-imidazol-4-yl)propanamide] | 269.7 (256.8 to 283.4) % | 

Same assay, conditions: 100% = normal enzyme turnover; mean of n = 4, 95% CI in parentheses

Row | SMILES | Amax, maximum % activation achieved (95% CI)
12 | NC(Cc1c[nH]cn1)C(=O)NCCc1c[nH]c2ccccc12 (racemic) [(rac)-9a, (rac)-N-(2-(1H-Indol-3-yl)ethyl)-2-amino-3-(1H-imidazol-4-yl)-propanamide] | 197 (177.5 to 222.8) %
13 | CC(C)(C)OC(=O)N[C@@H](Cc1ccc(O)cc1)C(=O)N[C@H](Cc1ccccc1)C(=O)O [Compound 4b] (Boc-Tyr-[dF]-OH) | Inactive
14 | N[C@@H](Cc1c[nH]cn1)C(=O)NCCc1ccccc1 [Compound 4c, (S)-2-Amino-3-(1H-imidazol-4-yl)-N-phenethylpropanamide] | 337.2 (302 to 378.6) %
15 | N[C@H](Cc1c[nH]cn1)C(=O)NCCc1ccccc1 [Compound 4d, (R)-2-Amino-3-(1H-imidazol-4-yl)-N-phenethylpropanamide] | 294.6 (278.0 to 313) %
16 | COc1ccc(CCNC(=O)[C@@H](N)Cc2c[nH]cn2)cc1 [Compound 4e, (S)-2-Amino-3-(1H-imidazol-4-yl)-N-(4-methoxyphenethyl)-propanamide] | 339.4 (314.2 to 369.3) %
17 | COc1ccc(CCNC(=O)[C@H](N)Cc2c[nH]cn2)cc1 [Compound 4f, (R)-2-Amino-3-(1H-imidazol-4-yl)-N-(4-methoxyphenethyl)-propanamide] | 378.3 (350.5 to 411.9) %
18 | COc1cccc(CCNC(=O)[C@H](N)Cc2c[nH]cn2)c1 [Compound 4j, (R)-2-Amino-3-(1H-imidazol-4-yl)-N-(3-methoxyphenethyl)-propanamide] | 255.3 (230.5 to 284.8) %

Same assay, conditions: recombinant rat Nln, QFS 15 μM, 37 °C; mean of n = 4, 95% CI in parentheses

Row | SMILES | A50, half maximal activation concentration (95% CI)
19 | CC(C)(C)OC(=O)N[C@@H](Cc1ccc(O)cc1)C(=O)N[C@H](Cc1ccccc1)C(=O)O [Compound 4b] (Boc-Tyr-[dF]-OH) | Inactive

— PMC9295256 (Journal of medicinal chemistry, 2021)
